The text below walks through data of US20180291123A1, “DI-FUNCTIONALIZED HYALURONIC ACID DERIVATIVES AND HYDROGELS THEREOF” (THE BROAD OF REGENTS OF THE UNIVERSITY OF TEXAS SYSTEM, priority 2015, published 2018).

No end group written: not given here.

Series [1] has as its system mouse embryonic stem cells. Kind of series: Differentiation of mouse embryonic stem cells on IKVAV concentration gradient PEG hydrogels. The series is classed as cell-based. Particulars: 3 days of differentiation.
Series [2] concerns hiPSC derived NSC. The series is described as follows: hiPSC derived NSC in 3D matrix with coupled IKVAV. Format: cell-based, human. The note with it: peptide coupled within a 3D matrix, preliminary data.

With IKVAV (also: tethered in PEG hydrogel), the toxicity result in series [1] (high concentration of tethered peptide) is listed as “toxicity evident”. Further, the neurite extension entry in series [1] (low concentration of tethered peptide) was “lack of neurite extension”. Moreover, the “effect on cellular survival, neurite extension and differentiation” value in series [1] (tethered peptide concentration gradient in PEG hydrogels, β3 tubulin staining) is listed as “concentration dependent effect”. Further, in series [2], the “survival and neurite extension” value is “can support survival and neurite extension”.
